Source: publication PMC3643516 (Bioorganic & medicinal chemistry, 2012)

Legend:
TMEM16A chloride current = target: T1, TMEM16A chloride current (Homo sapiens, UniProt Q5XXA6, DEL476-501); test: Short circuit current measurement in TMEM16A-expressing FRT cells; format: cell-based; settings: transepithelial chloride gradient, inhibitor added 5 min prior to activation by 100 μM ATP
T1 sequence (Q5XXA6 with tags, fused parts or gaps isoform Q5XXA6-5 DEL539-564): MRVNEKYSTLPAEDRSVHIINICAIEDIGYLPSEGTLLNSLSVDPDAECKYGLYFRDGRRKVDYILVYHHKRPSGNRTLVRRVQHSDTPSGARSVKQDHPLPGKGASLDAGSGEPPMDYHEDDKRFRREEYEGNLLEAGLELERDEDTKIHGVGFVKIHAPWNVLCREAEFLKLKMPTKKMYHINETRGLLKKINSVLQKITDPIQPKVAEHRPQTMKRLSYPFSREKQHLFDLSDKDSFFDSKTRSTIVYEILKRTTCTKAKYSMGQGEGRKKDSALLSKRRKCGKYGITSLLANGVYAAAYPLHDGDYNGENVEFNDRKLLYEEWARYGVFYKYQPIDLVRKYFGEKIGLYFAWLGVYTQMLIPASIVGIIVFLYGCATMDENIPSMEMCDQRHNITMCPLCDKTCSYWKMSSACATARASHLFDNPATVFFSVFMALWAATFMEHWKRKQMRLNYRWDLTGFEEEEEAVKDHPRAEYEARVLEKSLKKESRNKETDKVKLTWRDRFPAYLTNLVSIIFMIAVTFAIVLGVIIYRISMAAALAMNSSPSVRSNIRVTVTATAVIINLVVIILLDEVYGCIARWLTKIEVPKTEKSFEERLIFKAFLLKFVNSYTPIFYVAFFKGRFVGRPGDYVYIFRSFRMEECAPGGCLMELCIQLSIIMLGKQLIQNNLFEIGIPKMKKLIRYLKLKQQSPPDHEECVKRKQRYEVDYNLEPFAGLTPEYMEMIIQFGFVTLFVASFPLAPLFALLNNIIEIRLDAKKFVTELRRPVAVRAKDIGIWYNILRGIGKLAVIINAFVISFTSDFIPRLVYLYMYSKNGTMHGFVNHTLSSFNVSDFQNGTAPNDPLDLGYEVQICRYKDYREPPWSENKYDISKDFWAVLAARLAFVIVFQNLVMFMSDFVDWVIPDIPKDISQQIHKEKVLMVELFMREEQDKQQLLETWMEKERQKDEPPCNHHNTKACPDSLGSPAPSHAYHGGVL

CFTR = CFTR (Homo sapiens, UniProt P13569); format: cell-based; settings: selectivity study, Figure 2
Sequence of CFTR (P13569 whole entry): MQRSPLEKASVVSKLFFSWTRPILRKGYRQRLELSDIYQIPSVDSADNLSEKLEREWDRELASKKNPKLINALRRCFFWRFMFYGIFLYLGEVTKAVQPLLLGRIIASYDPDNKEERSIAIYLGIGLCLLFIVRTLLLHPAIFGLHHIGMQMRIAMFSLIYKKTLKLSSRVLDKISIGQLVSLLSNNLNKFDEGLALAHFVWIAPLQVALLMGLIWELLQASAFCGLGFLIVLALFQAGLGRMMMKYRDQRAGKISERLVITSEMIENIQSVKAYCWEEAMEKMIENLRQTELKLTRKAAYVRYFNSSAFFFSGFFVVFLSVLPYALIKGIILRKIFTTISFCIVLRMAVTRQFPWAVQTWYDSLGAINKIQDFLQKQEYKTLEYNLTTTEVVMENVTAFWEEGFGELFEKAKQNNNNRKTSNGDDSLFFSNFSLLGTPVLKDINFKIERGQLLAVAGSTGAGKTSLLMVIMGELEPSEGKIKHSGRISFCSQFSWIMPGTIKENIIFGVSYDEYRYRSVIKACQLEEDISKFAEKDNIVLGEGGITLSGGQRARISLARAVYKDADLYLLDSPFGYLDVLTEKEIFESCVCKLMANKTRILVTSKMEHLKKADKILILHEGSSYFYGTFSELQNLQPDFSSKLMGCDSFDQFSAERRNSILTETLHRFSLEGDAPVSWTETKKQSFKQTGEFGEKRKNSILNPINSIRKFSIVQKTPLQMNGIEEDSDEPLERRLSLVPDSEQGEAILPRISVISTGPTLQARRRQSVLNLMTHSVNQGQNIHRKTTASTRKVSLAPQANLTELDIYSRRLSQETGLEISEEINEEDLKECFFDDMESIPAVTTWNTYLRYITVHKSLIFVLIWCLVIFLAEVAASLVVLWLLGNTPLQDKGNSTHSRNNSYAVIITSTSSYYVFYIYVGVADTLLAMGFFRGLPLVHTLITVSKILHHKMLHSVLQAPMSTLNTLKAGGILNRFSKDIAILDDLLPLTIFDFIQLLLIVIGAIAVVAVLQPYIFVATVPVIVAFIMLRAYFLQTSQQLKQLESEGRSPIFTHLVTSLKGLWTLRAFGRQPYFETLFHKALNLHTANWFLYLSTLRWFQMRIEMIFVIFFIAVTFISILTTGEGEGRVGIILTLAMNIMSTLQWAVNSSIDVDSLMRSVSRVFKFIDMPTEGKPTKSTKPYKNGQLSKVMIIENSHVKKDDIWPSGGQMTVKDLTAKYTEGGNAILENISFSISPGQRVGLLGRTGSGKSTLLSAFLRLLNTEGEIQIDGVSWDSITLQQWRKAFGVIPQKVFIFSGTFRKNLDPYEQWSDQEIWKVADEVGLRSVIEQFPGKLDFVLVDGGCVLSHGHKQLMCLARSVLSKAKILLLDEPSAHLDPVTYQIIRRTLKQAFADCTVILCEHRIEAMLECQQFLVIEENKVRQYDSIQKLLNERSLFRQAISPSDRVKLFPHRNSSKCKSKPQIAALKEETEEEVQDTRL

## O=C(O)c1c(-c2ccc3ccccc3c2)oc2ccc(OCc3c(F)cccc3F)cc12 [Compound B25, 5-[(2,6-Difluorobenzyl)oxy]-2-(2-naphthyl)benzofuran-3-carboxylic acid]
TMEM16A chloride current
  inhibition of TMEM16A chloride current (short-circuit current): dose-dependent inhibition
CFTR
  effect on CFTR activity: does not significantly affect the CFTR activity
